The results in this text go back to ChEMBL document CHEMBL1201862, “PubChem BioAssay data set” (2004).

As a reminder, the GI50 is the concentration that inhibits growth by half.

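Each compound was tested at five concentrations against cells in 96-well plates for 48 hours. GI50 marks 50% less growth.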 The source made the active and inactive calls. No stated cut-off is given here; in the data, active = GI50 up to about 1.1 µM and inactive = higher.

Test systems include NCI-H226; CAKI-1; SR; SK-MEL-28; RXF 393; Malme-3M; HCT-15; OVCAR-5; SF-539; SK-OV-3; UACC-62; NCI-H23; MDA-MB-231; SF-295; DU-145; 786-0; SN12C; UACC-257; SK-MEL-2; TK-10.
Common to all, as to assay: DTP human tumour cell line panel, 48 h

For `C=C(C)[C@@H]1C[C@H]2O[C@](O)(C(=C)CC(=O)/C=C(/C)C[C@@H]3OC(=O)[C@]24O[C@@H]34)[C@H]1O`, the GI50 with NCI-H226, in the assay with CAKI-1, in the assay with SR, in the assay on SK-MEL-28, in the assay with RXF 393 and with Malme-3M was > 100 µM (inactive) throughout. The GI50 was > 100 µM in the assay with HCT-15; > 100 µM (inactive) in the assay on OVCAR-5; > 100 µM (inactive) in the assay with SF-539; > 100 µM (inactive) with SK-OV-3; > 100 µM (inactive) in the assay on UACC-62; > 100 µM (inactive) in the assay on NCI-H23. Besides, the GI50 in the assay on MDA-MB-231, in the assay with SF-295, in the assay on DU-145, with 786-0, with SN12C and in the assay on UACC-257 was > 100 µM (inactive) throughout. Also, the GI50 with SK-MEL-2 and with TK-10 was > 100 µM (inactive) throughout.

In the case of `COCN1CCN=c2c1c1c3c(c4ccccc4n23)CCC1`, the GI50 with NCI-H226 was 10.7 µM (inactive); with CAKI-1 it was > 100 µM (inactive); in the assay with SR it was > 100 µM (inactive); with SK-MEL-28 it was > 100 µM (inactive); in the assay with RXF 393, > 100 µM (inactive); with Malme-3M it was > 100 µM (inactive). Also, the GI50 in the assay on HCT-15 was > 100 µM; in the assay on OVCAR-5, > 100 µM (inactive); with SF-539, > 100 µM (inactive); in the assay with SK-OV-3, > 100 µM (inactive); in the assay with UACC-62 it was > 100 µM (inactive); in the assay with NCI-H23 it was > 100 µM (inactive). Besides, the GI50 in the assay with MDA-MB-231, with SF-295, in the assay with DU-145, in the assay on 786-0, with SN12C and with UACC-257 was > 100 µM (inactive) throughout. In addition, the GI50 with SK-MEL-2 and in the assay with TK-10 was > 100 µM (inactive) in each case.

Turning to `CC(=O)N1CN2C(=O)CCC2c2ccccc21` (stereo not given), the GI50 is > 100 µM (inactive) in the assay with NCI-H226; > 100 µM (inactive) in the assay with CAKI-1; 0.165 µM (active) with SR; > 100 µM (inactive) with SK-MEL-28; > 100 µM (inactive) in the assay on RXF 393; > 100 µM (inactive) in the assay on Malme-3M. The concentration for 50% growth inhibition (GI50) in the assay with HCT-15 was > 100 µM; in the assay on OVCAR-5 it was > 100 µM (inactive); with SF-539, > 100 µM (inactive); in the assay with SK-OV-3, > 100 µM (inactive); in the assay with UACC-62, > 100 µM (inactive); in the assay on NCI-H23, > 100 µM (inactive). Moreover, the GI50 with MDA-MB-231, in the assay on SF-295, with DU-145, in the assay on 786-0, in the assay with SN12C and in the assay with UACC-257 was > 100 µM (inactive) in each case. The GI50 with SK-MEL-2 and in the assay with TK-10 was > 100 µM (inactive) throughout.
